{"source": "paper PMC4891657", "about": "“Orexin 2 Receptor Antagonism is Sufficient to Promote NREM and REM Sleep from Mouse to Man” (Scientific Reports, 2016)", "key": {"OX1R [1]": {"biological_target": "T1, OX1R (Macaca mulatta, UniProt F7FE63)", "T1 sequence (F7FE63 1-425)": "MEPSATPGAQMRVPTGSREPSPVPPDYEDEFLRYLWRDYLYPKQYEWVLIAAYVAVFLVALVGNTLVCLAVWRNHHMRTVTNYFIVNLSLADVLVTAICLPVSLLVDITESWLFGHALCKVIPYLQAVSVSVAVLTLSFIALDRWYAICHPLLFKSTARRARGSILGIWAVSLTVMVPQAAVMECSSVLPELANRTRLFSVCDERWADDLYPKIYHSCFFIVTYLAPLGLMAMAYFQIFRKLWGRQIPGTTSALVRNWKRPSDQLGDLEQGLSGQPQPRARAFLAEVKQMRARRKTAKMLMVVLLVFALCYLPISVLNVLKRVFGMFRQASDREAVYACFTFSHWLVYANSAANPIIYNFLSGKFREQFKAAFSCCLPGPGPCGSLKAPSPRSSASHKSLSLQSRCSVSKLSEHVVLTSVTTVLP", "experiment": "Inhibition of orexin-peptide-A-induced calcium mobilization in CHO cells, rhesus OX1R", "assay_type": "cell-based, rhesus monkey", "experimental": "(§1) MK-1064 was evaluated for its ability to inhibit orexin-peptide-A-induced calcium mobilization in CHO cell lines separately expressing OX1R and OX2R from mice, rats, rabbits, dogs, rhesus monkeys and humans.\n(§2) Binding and functional blockade of OX1R and OX2R with MK-1064 relative to other 2-SORAs and the DORA, MK-6096, were assessed using membranes from Chinese hamster ovary (CHO)-K1 cells (American Type Tissue Collection, Manassas, VA) transfected to express human, mouse, rat, rabbit, dog, or rhesus monkey OX1R or OX2R receptors, as described previously. The kinetics of binding to human OX2R was assessed by radioligand displacement on CHO-K1 cells expressing the receptor. […] The ON rate analysis was performed by presoaking GF/B filters in 0.3% polyethyleneimine (Sigma) using a Skatron 12-well cell harvester and cold buffer at the indicated time points after addition. For OFF rate determination, binding reactions were allowed to proceed to equilibrium and terminated with 1000x [Kd] of unlabeled antagonist and filtered as above at pre-determined time points. Ultima Gold^TM (PerkinElmer 6013327) scintillation cocktail was added to each filter disc and counted on a PerkinElmer TriCarb 2910 scintillation counter. Data were analyzed using GraphPad® Prism v 6.04 (San Diego, CA, USA). The KON rate was determined according to the equation, KON = (KOBS − KOFF)/[ligand]."}, "OX2R [2]": {"biological_target": "T2, OX2R (Mus musculus, UniProt P58308)", "T2 construct": "expressed in transfected cells; host or cells: CHO-K1", "T2 sequence (P58308 1-460)": "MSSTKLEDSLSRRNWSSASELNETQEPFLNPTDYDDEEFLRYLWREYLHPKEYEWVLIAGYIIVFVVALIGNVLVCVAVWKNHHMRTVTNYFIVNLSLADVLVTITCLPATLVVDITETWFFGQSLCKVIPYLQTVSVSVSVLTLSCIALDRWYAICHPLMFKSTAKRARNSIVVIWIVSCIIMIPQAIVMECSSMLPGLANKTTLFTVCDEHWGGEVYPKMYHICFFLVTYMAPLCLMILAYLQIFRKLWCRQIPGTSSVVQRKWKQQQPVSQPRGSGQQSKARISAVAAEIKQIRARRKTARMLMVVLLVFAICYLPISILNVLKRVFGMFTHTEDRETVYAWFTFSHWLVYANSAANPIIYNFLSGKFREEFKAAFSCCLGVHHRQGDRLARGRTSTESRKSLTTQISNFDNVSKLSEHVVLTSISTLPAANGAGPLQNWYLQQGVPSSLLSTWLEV", "experiment": "Radio-ligand displacement binding, CHO-K1 membranes, mouse OX2R", "conditions": "for fold OX2R selectivity (Ki): OX1R Ki / OX2R Ki; for pKi: read-out: OX2R affinity (Ki)", "experimental": "as §1, §2"}, "OX2R [3]": {"biological_target": "T3, OX2R (Oryctolagus cuniculus, UniProt G1STQ8)", "T3 sequence (G1STQ8 1-444)": "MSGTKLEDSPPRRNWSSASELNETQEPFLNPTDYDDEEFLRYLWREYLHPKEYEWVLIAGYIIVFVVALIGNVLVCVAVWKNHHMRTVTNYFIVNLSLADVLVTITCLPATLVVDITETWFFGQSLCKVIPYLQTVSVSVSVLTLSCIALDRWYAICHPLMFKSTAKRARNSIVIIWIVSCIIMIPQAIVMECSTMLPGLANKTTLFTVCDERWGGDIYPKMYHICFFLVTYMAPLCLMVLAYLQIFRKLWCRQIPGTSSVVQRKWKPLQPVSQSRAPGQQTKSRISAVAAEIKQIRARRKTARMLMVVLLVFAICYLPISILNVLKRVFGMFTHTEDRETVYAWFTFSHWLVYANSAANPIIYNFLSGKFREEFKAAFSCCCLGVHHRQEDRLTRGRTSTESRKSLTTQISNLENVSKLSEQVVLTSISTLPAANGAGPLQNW", "experiment": "Radio-ligand displacement binding, CHO-K1 membranes, rabbit OX2R", "conditions": "for fold OX2R selectivity (Ki): OX1R Ki / OX2R Ki; for pKi: read-out: OX2R affinity (Ki)", "experimental": "as §1, §2"}, "OX2R [4]": {"biological_target": "T4, OX2R (Macaca mulatta, UniProt F7CZM2)", "T4 sequence (F7CZM2 1-444)": "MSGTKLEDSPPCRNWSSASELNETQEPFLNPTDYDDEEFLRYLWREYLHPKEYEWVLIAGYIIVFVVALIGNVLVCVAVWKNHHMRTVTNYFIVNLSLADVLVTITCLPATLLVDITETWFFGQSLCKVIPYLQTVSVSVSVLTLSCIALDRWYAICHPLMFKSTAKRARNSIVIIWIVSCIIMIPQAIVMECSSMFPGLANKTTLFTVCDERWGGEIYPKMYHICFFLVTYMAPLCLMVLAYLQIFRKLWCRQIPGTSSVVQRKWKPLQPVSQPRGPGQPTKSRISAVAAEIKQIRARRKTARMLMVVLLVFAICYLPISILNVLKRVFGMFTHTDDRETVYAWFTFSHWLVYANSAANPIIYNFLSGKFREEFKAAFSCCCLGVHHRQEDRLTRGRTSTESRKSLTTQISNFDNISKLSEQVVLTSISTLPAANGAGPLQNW", "experiment": "Radio-ligand displacement binding, CHO-K1 membranes, rhesus OX2R", "set-up": "species or system rhesus monkey", "conditions": "for fold OX2R selectivity (Ki): OX1R Ki / OX2R Ki; for pKi: read-out: OX2R affinity (Ki)", "experimental": "as §1, §2"}, "OX1R [5]": {"biological_target": "T5, OX1R (Mus musculus, UniProt P58307)", "T5 construct": "expressed in transfected cells; host or cells: CHO-K1", "T5 sequence (P58307 1-416)": "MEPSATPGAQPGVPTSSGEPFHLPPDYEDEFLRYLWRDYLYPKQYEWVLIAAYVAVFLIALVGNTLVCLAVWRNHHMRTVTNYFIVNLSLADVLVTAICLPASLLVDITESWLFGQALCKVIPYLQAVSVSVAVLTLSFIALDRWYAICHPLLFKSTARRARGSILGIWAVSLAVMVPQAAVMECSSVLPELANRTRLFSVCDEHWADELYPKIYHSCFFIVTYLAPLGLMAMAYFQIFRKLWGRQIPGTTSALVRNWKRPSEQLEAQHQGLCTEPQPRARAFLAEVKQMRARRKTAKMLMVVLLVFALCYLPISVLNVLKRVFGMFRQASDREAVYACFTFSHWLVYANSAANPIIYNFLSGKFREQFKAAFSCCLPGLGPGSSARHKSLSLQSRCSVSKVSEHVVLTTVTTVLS", "experiment": "Radio-ligand displacement binding, CHO-K1 membranes, mouse OX1R", "conditions": "read-out: OX1R affinity (Ki)", "experimental": "as §1, §2"}}, "note": "pKi: −log10 of the molar value."}
{"smiles": "COc1ccc(CNC(=O)c2cc(-c3cncc(C)c3)ncc2-c2ccccc2)nc1OC", "note": "[2-SORA-7]", "values": [{"measurement": "Kb", "setting": "OX1R [1]", "value": 3650, "unit": "nM"}, {"measurement": "fold OX2R selectivity (Ki)", "setting": "OX2R [2]", "value": "[2040] fold"}, {"measurement": "pKi", "setting": "OX2R [2]", "value": 9.08}, {"measurement": "fold OX2R selectivity (Ki)", "setting": "OX2R [3]", "value": "[9986] fold"}, {"measurement": "pKi", "setting": "OX2R [3]", "value": 9.36}, {"measurement": "fold OX2R selectivity (Ki)", "setting": "OX2R [4]", "value": "[1994] fold"}, {"measurement": "pKi", "setting": "OX2R [4]", "value": 9.17}, {"measurement": "pKi", "setting": "OX1R [5]", "value": 5.77}]}
{"smiles": "COc1ccc(CNC(=O)c2cc(-c3cc(Cl)cc(Cl)c3)cnc2-c2cccnc2)cc1OC", "note": "[2-SORA-18]", "values": [{"measurement": "Kb", "setting": "OX1R [1]", "value": 141, "unit": "nM"}, {"measurement": "fold OX2R selectivity (Ki)", "setting": "OX2R [2]", "value": "[653] fold"}, {"measurement": "pKi", "setting": "OX2R [2]", "value": 9.82}, {"measurement": "fold OX2R selectivity (Ki)", "setting": "OX2R [3]", "value": "[2410] fold"}, {"measurement": "pKi", "setting": "OX2R [3]", "value": 10.00}, {"measurement": "fold OX2R selectivity (Ki)", "setting": "OX2R [4]", "value": "[1200] fold"}, {"measurement": "pKi", "setting": "OX2R [4]", "value": 9.96}, {"measurement": "pKi", "setting": "OX1R [5]", "value": 7.01}]}
{"smiles": "COc1ccc(CNC(=O)c2cc(-c3cncc(Cl)c3)cnc2-c2ccccn2)nc1OC", "note": "[MK-1064, 5″-chloro-N-[(5,6-dimethoxypyridin-2-yl)methyl]-2,2′:5′, 3″-terpyridine-3′-carbo xamide]", "values": [{"measurement": "Kb", "setting": "OX1R [1]", "value": 3370, "unit": "nM"}, {"measurement": "fold OX2R selectivity (Ki)", "setting": "OX2R [2]", "value": "[1136] fold"}, {"measurement": "pKi", "setting": "OX2R [2]", "value": 8.99}, {"measurement": "fold OX2R selectivity (Ki)", "setting": "OX2R [3]", "value": "[4780] fold"}, {"measurement": "pKi", "setting": "OX2R [3]", "value": 9.29}, {"measurement": "fold OX2R selectivity (Ki)", "setting": "OX2R [4]", "value": "[1315] fold"}, {"measurement": "pKi", "setting": "OX2R [4]", "value": 9.21}, {"measurement": "pKi", "setting": "OX1R [5]", "value": 5.94}]}
{"smiles": "COc1ccc(CNC(=O)c2cc(-c3cncc(C)c3)ncc2-c2nccs2)nc1OC", "note": "[MK-3697]", "values": [{"measurement": "Kb", "setting": "OX1R [1]", "value": 21400, "unit": "nM"}, {"measurement": "pKi", "setting": "OX2R [2]", "value": 8.83}, {"measurement": "pKi", "setting": "OX2R [3]", "value": 9.00}, {"measurement": "pKi", "setting": "OX2R [4]", "value": 8.94}, {"measurement": "pKi", "setting": "OX1R [5]", "value": 5.40}]}
{"smiles": "Cc1ccc(-c2ncccn2)c(C(=O)N2C[C@H](COc3ccc(F)cn3)CC[C@H]2C)c1", "note": "[MK-6096]", "values": [{"measurement": "Kb", "setting": "OX1R [1]", "value": 21, "unit": "nM"}, {"measurement": "fold OX2R selectivity (Ki)", "setting": "OX2R [2]", "value": "[5.2] fold"}, {"measurement": "pKi", "setting": "OX2R [2]", "value": 9.25}, {"measurement": "fold OX2R selectivity (Ki)", "setting": "OX2R [3]", "value": "[9.3] fold"}, {"measurement": "pKi", "setting": "OX2R [3]", "value": 9.55}, {"measurement": "fold OX2R selectivity (Ki)", "setting": "OX2R [4]", "value": "[28.4] fold"}, {"measurement": "pKi", "setting": "OX2R [4]", "value": 9.36}, {"measurement": "pKi", "setting": "OX1R [5]", "value": 8.54}]}
